Here are results for one molecule from patent US8222296B2, “Conjugates comprising a GABA- or glycine compound, pharmaceutical compositions and combinations thereof and their use in treating CNS disorders” (Ramot at Tel-Aviv University Ltd., priority 2006, dated 2012).

Data set [1] can be described thus: Stability of BIL-1022 in water and methanol. To be noted: low pH (3-5), room temperature (20-25° C.). In kind it is physicochemical. Here is the method: The stability of BIL-1022 was briefly studied. BIL-1022 is stable in water and methanol at low pH (3-5) at room temperature (20-25° C.).
Data set [2] in a line: Water content (Karl-Fisher titration) after sitting uncapped on the bench overnight. In kind it is physicochemical. As to conditions: 0.15% vs. 0.16%. Here is the method:
Water content was measured using Karl-fisher titration.

SMILES strings stand for the structures. Where a name gives a salt, the structure may show the parent alone.

On to `CC(=O)Nc1ccc(OC(=O)CCCN)cc1` [BIL-1022, 4-acetamidophenyl 4-aminobutanoate hydrochloride], for which the “stability in water and methanol” value in data set [1] is “stable”. In data set [2], the “water content of the product upon sitting in vial (uncapped) on the bench overnight” value is “remained substantially unchanged”.
